Like-named read-outs stand apart in the source and are kept apart here.
Experiments:
SERT = target: T1, SERT (Homo sapiens, UniProt P31645); assay: SERT Inhibition Assay (Neurotransmitter Transportation Fluorescence assay); type: cell-based; conditions: for IC50 Ratio to (−) Mesembrine: SERT assay, ratio to compound 0001
T1 construct: expressed in transfected cells
Description: Example A: SERT Inhibition Assay
SERT inhibition was measured using a Neurotransmitter Transportation Fluorescence assay. Briefly, stable 5HHH cells were prepared in a 384 microwell plate. Compounds were prepared by in assay buffer (20 mM HEPES, 0.1% BSA). The compounds were added to the plated cells and incubated for 30 minutes at 37° C. 25 μL of dye solution (Molecular Devices Neurotransmitter Transporter Uptake Assay Kit) was added per well and incubated for 30 minutes at 37° C. The plates were then read on a plate reader.

5-HTT = 5-HTT (Homo sapiens, UniProt P31645); assay: Potency at 5-HTT compared to mesembrine
[1] = Metabolic stability compared to mesembrine; type: in vitro ADME
5-HT transporter (SERT) = 5-HT transporter (SERT) (Homo sapiens, UniProt P31645); conditions: concentration response curves; cited from earlier work
[2] = stable 5HHH cells, 30 minutes at 37° C., read-out: SERT Assay Potency Range

T1 sequence (P31645 whole entry, species assumed): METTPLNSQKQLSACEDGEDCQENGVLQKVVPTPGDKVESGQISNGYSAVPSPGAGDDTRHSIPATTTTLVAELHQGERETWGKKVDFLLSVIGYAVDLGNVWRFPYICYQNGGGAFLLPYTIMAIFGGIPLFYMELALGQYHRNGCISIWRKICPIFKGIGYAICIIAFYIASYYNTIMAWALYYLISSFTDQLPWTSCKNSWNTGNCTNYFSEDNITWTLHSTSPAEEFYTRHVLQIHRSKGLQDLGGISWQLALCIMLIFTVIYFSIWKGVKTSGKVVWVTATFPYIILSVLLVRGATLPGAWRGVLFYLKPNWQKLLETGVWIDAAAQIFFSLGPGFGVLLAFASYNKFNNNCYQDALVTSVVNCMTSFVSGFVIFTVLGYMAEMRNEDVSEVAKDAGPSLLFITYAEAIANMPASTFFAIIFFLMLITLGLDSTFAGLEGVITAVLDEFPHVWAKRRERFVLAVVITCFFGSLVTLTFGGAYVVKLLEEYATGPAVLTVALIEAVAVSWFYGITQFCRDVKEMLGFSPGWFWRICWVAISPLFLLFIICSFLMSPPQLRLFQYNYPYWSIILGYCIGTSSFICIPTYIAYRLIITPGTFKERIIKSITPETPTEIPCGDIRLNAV
5-HTT, sequence (P31645 whole entry, species assumed): as above
5-HT transporter (SERT), sequence (P31645 whole entry, species assumed): as above

Row | Structure (SMILES) | IC50 Ratio to (−) Mesembrine (SERT) | IC50 (SERT; [2]) | other results
1 | CCCOc1cc([C@@]23CC[C@@H](O)C[C@@H]2N(C)CC3)ccc1OC [Compound 0707] | ≥10 | 50 to 100 nM | 
2 | COc1ccc([C@]23CCN(C)[C@H]2C[C@@H](O)[C@@H]2O[C@@H]23)cc1OC [Compound 1930] | ≥10 | 100 to 500 nM | 
3 | COc1ccc([C@@]23C=C[C@@H](O)C[C@@H]2N(C)CC3)cc1OC [Compound 0020] | ≥100 | 100 to 500 nM | 
4 | COc1ccc([C@@]23CC[C@H](O)C[C@@H]2N(C)CC3)cc1OC [6-epi-mesembranol] |  |  | potency at 5-HTT (5-HTT): decrease in potency; metabolic stability [1]: enhanced metabolic stability
5 | CCN1CC[C@]2(c3ccc(OC)c(OC)c3)CC[C@H](O)C[C@H]12 [Compound 1002] | ≥100 | 500 to 1000 nM | 
6 | CCN1CC[C@]2(c3ccc(OC)c(OC)c3)CC[C@@H](O)C[C@H]12 [Compound 1001] | ≥100 | > 1000 nM | 
7 | COc1cc([C@@]23CC[C@@H](O)C[C@@H]2N(C)CC3)ccc1OC(F)F [Compound 2723] | ≤0.5 |  | IC50 (SERT): < 50 nM
8 | CCOc1ccc([C@@]23CC[C@@H](O)C[C@@H]2N(C)CC3)cc1OCC [Compound 1763] | ≥1.0 | < 50 nM | 
9 | COc1ccc([C@@]23CC[C@@H](O)C[C@@H]2N(C)CC3)cc1OC [Compound 0018, (3aS,6R,7aS)-3a-(3,4-dimethoxyphenyl)-1-methyloctahydro-1H-indol-6-ol] | ≥1.0 | < 50 nM | 
10 | COc1ccc([C@@]23C=C[C@H](O)C[C@@H]2N(C)CC3)cc1OC [Compound 0021] | ≥10 | 100 to 500 nM | 
11 | COc1cc([C@@]23CC[C@H](O)C[C@@H]2N(C)CC3)ccc1O [Compound 2700] | ≥1.0 | < 50 nM | 
12 | COc1ccc([C@]23C=C[C@@H](O)C[C@H]2N(C)CC3)cc1OC [Compound 0024] | ≥100 | 100 to 500 nM | 
13 | COc1ccc([C@@]23C=C[C@@H](O)C[C@@H]2N(C)CC3)cc1OC [Mesembrenol, mesembrenol] |  |  | nH (5-HT transporter (SERT)): 1.1
14 | COc1ccc([C@@]23CC[C@@H](O)C[C@@H]2N(C)CC3)cc1OC [mesembranol, Mesembranol] |  |  | potency at 5-HTT (5-HTT): decrease in potency; metabolic stability [1]: enhanced metabolic stability
15 | COc1ccc([C@@]23CC[C@H](O)C[C@@H]2N(C)CC3)cc1OC [Compound 0019, (3aS,6S,7aS)-3a-(3,4-dimethoxyphenyl)-1-methyloctahydro-1H-indol-6-ol] | ≥1.0 | < 50 nM | 
16 | CCOc1ccc([C@@]23CC[C@H](O)C[C@@H]2N(C)CC3)cc1OCC [Compound 1764] | ≤0.5 | < 50 nM | 
17 | COc1ccc([C@]23C=C[C@H](O)C[C@H]2N(C)CC3)cc1OC [Compound 0023] | ≥10 | 100 to 500 nM | 
18 | CCCOc1cc([C@@]23CC[C@H](O)C[C@@H]2N(C)CC3)ccc1OC [Compound 0708] | ≥1.0 | < 50 nM | 
19 | COc1ccc([C@]23CCN(C)[C@H]2[C@H]2CC[C@@H]3C[C@H]2O)cc1OC [Compound 1933] | ≥1.0 | < 50 nM | 
20 | COc1cc([C@@]23CC[C@H](O)C[C@@H]2N(C)CC3)ccc1OC(F)F [Compound 2724] | ≤0.5 | < 50 nM | 
21 | COc1ccc([C@@]23CCN(C)[C@@H]2C[C@H](O)[C@@H]2O[C@@H]23)cc1OC (single isomer, unassigned) [Compound 1932] | ≥10 | 100 to 500 nM | 
